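1) Cells in 96-well plates. 2) Compound, 48 h, 5 concentrations. 3) Linear interpolation between surrounding doses. 4) Unreached endpoint = highest concentration. Here, GI50 denotes the concentration required for 50% inhibition of growth. TGI denotes the concentration required for complete inhibition of growth.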
Tests used:
Assay in all cases: NCI anticancer screen, dose series, 48 h
786-0 renal = system: 786-0 renal
A498 renal = system: A498 renal
A549 NSCLC = system: A549 NSCLC
ACHN renal = system: ACHN renal
BT-549 breast = system: BT-549 breast
CAKI-1 renal = system: CAKI-1 renal
CCRF-CEM leukemia = system: CCRF-CEM leukemia
COLO 205 colon = system: COLO 205 colon
DU-145 prostate = system: DU-145 prostate
EKVX NSCLC = system: EKVX NSCLC
HCC-2998 colon = system: HCC-2998 colon
HCT-116 colon = system: HCT-116 colon
HCT-15 colon = system: HCT-15 colon
HL-60(TB) leukemia = system: HL-60(TB) leukemia
HOP-62 NSCLC = system: HOP-62 NSCLC
HOP-92 NSCLC = system: HOP-92 NSCLC
HS 578T breast = system: HS 578T breast
HT29 colon = system: HT29 colon
IGROV1 ovarian = system: IGROV1 ovarian
K-562 leukemia = system: K-562 leukemia
KM12 colon = system: KM12 colon
LOX IMVI melanoma = system: LOX IMVI melanoma
M14 melanoma = system: M14 melanoma
MALME-3M melanoma = system: MALME-3M melanoma
MCF7 breast = system: MCF7 breast
MDA-MB-231 breast = system: MDA-MB-231 breast
MDA-MB-435 = system: MDA-MB-435
MOLT-4 leukemia = system: MOLT-4 leukemia
NCI-H226 lung = system: NCI-H226 lung

Question: Which results are given for `FC(F)(F)c1ccc(-c2cncn2-c2ccccc2)cc1`?
Answer: GI50 (786-0 renal): 10 µM; TGI (786-0 renal): 21.9 µM; GI50 (A498 renal): 12.9 µM; TGI (A498 renal): 27.1 µM; GI50 (A549 NSCLC): 11.9 µM; TGI (A549 NSCLC): 27.5 µM; GI50 (ACHN renal): 3.68 µM; TGI (ACHN renal): 23 µM; GI50 (BT-549 breast): 15.1 µM; TGI (BT-549 breast): 40.4 µM; GI50 (CAKI-1 renal): 4.71 µM; TGI (CAKI-1 renal): > 100 µM; GI50 (CCRF-CEM leukemia): 2.84 µM; TGI (CCRF-CEM leukemia): 15.7 µM; GI50 (COLO 205 colon): 19.1 µM; TGI (COLO 205 colon): 47.1 µM; GI50 (DU-145 prostate): 6.28 µM; TGI (DU-145 prostate): 26.2 µM; GI50 (EKVX NSCLC): 17.1 µM; TGI (EKVX NSCLC): 54.3 µM; GI50 (HCC-2998 colon): 12.3 µM; TGI (HCC-2998 colon): 26.2 µM; GI50 (HCT-116 colon): 1.88 µM; TGI (HCT-116 colon): 16.3 µM; GI50 (HCT-15 colon): 18.1 µM; TGI (HCT-15 colon): > 100 µM; GI50 (HL-60(TB) leukemia): 12.7 µM; TGI (HL-60(TB) leukemia): 35.6 µM; GI50 (HOP-62 NSCLC): 2.72 µM; TGI (HOP-62 NSCLC): 20.7 µM; GI50 (HOP-92 NSCLC): 2.89 µM; TGI (HOP-92 NSCLC): 18.9 µM; GI50 (HS 578T breast): 16.4 µM; TGI (HS 578T breast): 47.8 µM; GI50 (HT29 colon): 21.3 µM; TGI (HT29 colon): > 100 µM; GI50 (IGROV1 ovarian): 12.3 µM; TGI (IGROV1 ovarian): 38.6 µM; GI50 (K-562 leukemia): 20.9 µM; TGI (K-562 leukemia): 77.6 µM; GI50 (KM12 colon): 20.6 µM; TGI (KM12 colon): 70.8 µM; GI50 (LOX IMVI melanoma): 5.68 µM; TGI (LOX IMVI melanoma): 23.2 µM; GI50 (M14 melanoma): 13 µM; TGI (M14 melanoma): 27.1 µM; GI50 (MALME-3M melanoma): 21.1 µM; TGI (MALME-3M melanoma): 43.1 µM; GI50 (MCF7 breast): 22.7 µM; TGI (MCF7 breast): > 100 µM; GI50 (MDA-MB-231 breast): 11.8 µM; TGI (MDA-MB-231 breast): 28.6 µM; GI50 (MDA-MB-435): 24.4 µM; TGI (MDA-MB-435): 88.5 µM; GI50 (MOLT-4 leukemia): 3.9 µM; TGI (MOLT-4 leukemia): 27.2 µM; GI50 (NCI-H226 lung): 10.5 µM
